In patent publication US20120108501A1, “Protease Inhibitors” (priority 2009, published 2012):

What was measured:
[1] = Pharmacokinetics of released PEGylated protease inhibitor following P.O. administration of prodrugs in rats; type: in vivo, male Sprague-Dawley rats; set-up: AUCall Mean: concentration or dose not given beside the values; conditions: rats (n = 4-5)
Method in brief: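 Prodrugs given orally to male Sprague-Dawley rats, with serial blood via jugular catheter into K2EDTA. Plasma levels of test article or released PEGylated inhibitor measured by LC-MS/MS. PK parameters from noncompartmental analysis.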

[2] = Pharmacokinetics of PEGylated protease inhibitor prodrugs in rats; type: in vivo, male Sprague-Dawley rats; set-up: AUCall / AUC: concentration or dose not given beside the values; conditions: prodrug in plasma; for AUCall / Cmax: mean ± SD
Description: Pharmacokinetic analysis of protease inhibitors described herein was conducted. To evaluate the pharmacokinetics of PEGylated protease inhibitor conjugates with releasable lipophilic attachments, test compounds were administered to male Sprague-Dawley rats.
At various times following test article administration, serial blood samples were collected from indwelling jugular vein catheters and transferred to micro-tubes containing 7.5 μL of 20% w/v K2EDTA as an anticoagulant. Following processing of the blood samples to plasma (10 minutes at 10000 rpm, Centrifuge Model: Kubota 3500), plasma concentrations of the test article or corresponding PEGylated molecule released from the test article was measured using LC-MS/MS methods. Pharmacokinetic parameters were estimated using noncompartmental methods.
Table 3 presents a summary of pharmacokinetic parameters of PEGylated protease inhibitor prodrugs, wherein Cmax is the maximum (peak) concentration, AUCall represents the area under the concentration-time curve from zero to time of last concentration value, T½ is half life, and MRTlast is the mean residence time to last observable concentration

[3] = mPEG5-atazanavir in plasma after PO administration of mPEG5-ATV or of the listed prodrug
[4] = mPEG3-atazanavir in plasma after PO administration of mPEG3-ATV or of the listed prodrug
[5] = mPEG6-atazanavir in plasma after PO administration of mPEG6-ATV or of the listed prodrug

Row | Compound | AUCall Mean [1, 3] | Cmax Mean [1, 3] | MRT last Mean [1, 3] | Tmax Median [1, 3] | MRTlast [2] | t½(z) [2] | Cmin(24 hr) [2] | AUCall [2] | Cmax [2] | AUCall Mean [1, 4] | Cmax Mean [1, 4] | MRT last Mean [1, 4] | Tmax* Median [1, 4] | AUCall Mean [1, 5] | Cmax Mean [1, 5] | MRT last Mean [1, 5] | Tmax Median [1, 5]
1 | CCOC(C)OC(CN(Cc1ccc(-c2ccccn2)cc1)NC(=O)C(NC(=O)OC)C(C)(C)C)C(Cc1ccccc1)NC(=O)C(NC(=O)OCCOCCOCCOCCOCCOC)C(C)(C)C (mixture of isomers) [1-ethoxyethoxy-mPEG5-Atazanivir, ethoxy ethoxy mPEG5-atazanavir] | 329 ng·h/mL | 109 ng/mL | 1.95 h | 1.50 h | 1.80 ± 0.060 h | 2.14 ± 1.85 h | 0.208 ± 0.416 ng/mL | 4960 ± 1730 ng·h/mL | 1420 ± 595 ng/mL |  |  |  |  |  |  |  | 
2 | Phe-Gly-mPEG3-Atazanavir Hydrochloride |  |  |  |  | 0.602 ± 0.164 h | 1.24 ± 0.237 h |  | 6.07 ± 3.82 ng·h/mL | 7.38 ± 6.67 ng/mL | 69.6 ng·h/mL | 5.02 ng/mL | 12.6 h | 1.00 h |  |  |  | 
3 | CCOC(C)OC(CN(Cc1ccc(-c2ccccn2)cc1)NC(=O)C(NC(=O)OC)C(C)(C)C)C(Cc1ccccc1)NC(=O)C(NC(=O)OCCOCCOCCOC)C(C)(C)C (mixture of isomers) [1-ethoxyethoxy-mPEG3-Atazanivir, ethoxy ethoxy mPEG3-atazanavir] |  |  |  |  | 1.62 ± 0.350 h | 2.01 ± 0.88 h | 0.370 ± 0.455 ng/mL | 3950 ± 2740 ng·h/mL | 1370 ± 549 ng/mL | 500 ng·h/mL | 154 ng/mL | 2.35 h | 0.500 h |  |  |  | 
4 | COCCOCCOCCOCCOCCOC(=O)NC(C(=O)NC(Cc1ccccc1)C(CN(Cc1ccc(-c2ccccn2)cc1)NC(=O)C(NC(=O)OC)C(C)(C)C)OC(=O)COCCOC(=O)C(N)CC(C)C)C(C)(C)C.Cl (stereo not drawn) [mPEG5-Atazanavir-CME-Leucine HCl, mPEG5-Atazanavir-CME-Leucine] | 65.6 ng·h/mL | 2.88 ng/mL | 16.5 h | 9.00 h | 0.250 ± 0.000 h |  |  | 0.119 ± 0.0826 ng·h/mL | 0.45 ± 0.330 ng/mL |  |  |  |  |  |  |  | 
5 | COCCOCCOCCOC(=O)NC(C(=O)NC(Cc1ccccc1)C(CN(Cc1ccc(-c2ccccn2)cc1)NC(=O)C(NC(=O)OC)C(C)(C)C)OC(=O)COCCOC(=O)C(N)Cc1ccccc1)C(C)(C)C.Cl (stereo not drawn) [mPEG3-Atazanavir-CME-phenylalanine HCl, mPEG3-atazanavir-CME-phenylalanine] |  |  |  |  | 2.36 ± 3.57 h |  |  | 10.2 ± 8.7 ng·h/mL | 7.98 ± 6.06 ng/mL | 99.5 ng·h/mL | 4.48 ng/mL | 18.5 h | 6.00 h |  |  |  | 
6 | CCOC(C)OC(CN(Cc1ccc(-c2ccccn2)cc1)NC(=O)C(NC(=O)OC)C(C)(C)C)C(Cc1ccccc1)NC(=O)C(NC(=O)OCCOCCOCCOCCOCCOCCOC)C(C)(C)C (mixture of isomers) [1-ethoxyethoxy-mPEG6-Atazanivir, ethoxy ethoxy mPEG6-atazanavir] |  |  |  |  | 2.17 ± 0.340 h | 2.45 ± 0.630 h | 0.354 ± 0.410 ng/mL | 2200 ± 2000 ng·h/mL | 630 ± 550 ng/mL |  |  |  |  | 137 ng·h/mL | 28.8 ng/mL | 4.33 h | 1.50 h
7 | COCCOCCOCCOC(=O)NC(C(=O)NC(Cc1ccccc1)C(CN(Cc1ccc(-c2ccccn2)cc1)NC(=O)C(NC(=O)OC)C(C)(C)C)OC(=O)CCCC(=O)O)C(C)(C)C (stereo not drawn) [mPEG3-Atazanavir-glutaric acid] |  |  |  |  | 8.23 ± 3.48 h | 7.69 ± 2.54 h | 2.68 ± 1.51 ng/mL | 351 ± 50.2 ng·h/mL | 61.3 ± 52.7 ng/mL | 53.8 ng·h/mL |  | 19.5 h | 24.0 h |  |  |  | 
